Assay results: US20260250290A1 (BRISTOL-MYERS SQUIBB COMPANY, priority 2023, published 2026)
Counter-ions that a name gives are not always drawn.

molecular target: T1, full length SGK1 (Homo sapiens, UniProt O00141); assay: SGK1 inhibition Assay A (Caliper LabChip electrophoretic separation of fluorescent peptide substrate and phosphorylated product); assay type: biochemical; conditions: Assay A; 20 μM ATP, 40 min incubation; read-out: SGK1 IC50
T1 construct: 125 μM full length SGK1 (Life Technologies Part #PR7358A); purchased Life Technologies PR7358A
T1 sequence (O00141 1-431): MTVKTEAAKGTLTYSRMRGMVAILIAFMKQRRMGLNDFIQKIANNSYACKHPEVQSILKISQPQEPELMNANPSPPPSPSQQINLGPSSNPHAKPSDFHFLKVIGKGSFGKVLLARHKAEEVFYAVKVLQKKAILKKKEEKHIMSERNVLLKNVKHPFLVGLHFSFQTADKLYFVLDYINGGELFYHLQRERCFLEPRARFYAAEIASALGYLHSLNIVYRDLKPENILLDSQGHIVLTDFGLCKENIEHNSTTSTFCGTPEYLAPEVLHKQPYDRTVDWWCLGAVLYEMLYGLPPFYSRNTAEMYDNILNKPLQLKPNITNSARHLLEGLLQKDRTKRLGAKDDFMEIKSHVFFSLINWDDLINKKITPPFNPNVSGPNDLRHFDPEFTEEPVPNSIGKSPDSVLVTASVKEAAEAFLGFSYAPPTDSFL

Molecule | IC50 [nM]
CC(C)n1cc(-c2cc(N3CCC[C@@H](NC(=O)c4cccc(N5CCN(C)CC5)n4)C3)c3c(N)ncnn23)ccc1=O [Example 792, (R)-N-(1-(4-amino-7-(1-isopropyl-6-oxo-1,6-dihydropyridin-3-yl)pyrrolo[2,1-f][1,2,4]triazin-5-yl)piperidin-3-yl)-6-(4-methylpiperazin-1-yl)picolinamide] | 29
N#Cc1ccc(-c2cc(N3CCC[C@@H](NC(=O)c4ccc(Cl)s4)C3)c3c(N)ncnn23)cc1F [Example 243, (R)-N-(1-(4-amino-7-(4-cyano-3-fluorophenyl)pyrrolo[2,1-f][1,2,4]triazin-5-yl)piperidin-3-yl)-5-chlorothiophene-2-carboxamide, TFA] | 1
CS(=O)(=O)c1ccc(-c2cc(N3CCC[C@@H](NC(=O)c4ccncc4)C3)c3c(N)ncnn23)cc1 [Example 27, (R)-N-(1-(4-amino-7-(4-(methylsulfonyl)phenyl)pyrrolo[2,1-f][1,2,4]triazin-5-yl)piperidin-3-yl)isonicotinamide] | 12
Nc1ncnn2c(-c3cccc(CO)c3)cc(N3CCC[C@@H](NC(=O)c4ccc(Cl)s4)C3)c12 [Example 214, (R)-N-(1-(4-amino-7-(3-(hydroxymethyl)phenyl)pyrrolo[2,1-f][1,2,4]triazin-5-yl)piperidin-3-yl)-5-chlorothiophene-2-carboxamide] | 11
CC(=O)N1CC=C(c2cc(N3CCC[C@@H](NC(=O)c4cc5c(s4)CCNC5)C3)c3c(N)ncnn23)C1 [Example 815, (R)—N-(1-(7-(1-acetyl-2,5-dihydro-1H-pyrrol-3-yl)-4-aminopyrrolo[2,1-f][1,2,4]triazin-5-yl)piperidin-3-yl)-4,5,6,7-tetrahydrothieno[3,2-c]pyridine-2-carboxamide TFA salt] | 104
CC(=O)N1CC=C(c2cc(N3CCC[C@@H](NC(=O)c4ccn(C(F)F)n4)C3)c3c(N)ncnn23)C1 [Example 737] | 10
CN(C)CCOc1cc(C(F)F)sc1C(=O)N[C@@H]1CCCN(c2cc(-c3ccc(C=O)cc3)n3ncnc(N)c23)C1 [Example 308, (R)-N-(1-(4-amino-7-(4-formylphenyl)pyrrolo[2,1-f][1,2,4]triazin-5-yl)piperidin-3-yl)-5-(difluoromethyl)-3-(2-(dimethylamino)ethoxy)thiophene-2-carboxamide] | 1
COC(=O)N1CC=C(c2cc(N3CCC[C@@H](NC(=O)c4cc5cc(F)ccc5[nH]4)C3)c3c(N)ncnn23)C1 [Example 518, Methyl (R)-3-(4-amino-5-(3-(5-fluoro-1H-indole-2-carboxamido)piperidin-1-yl)pyrrolo[2,1-f][1,2,4]triazin-7-yl)-2,5-dihydro-1H-pyrrole-1-carboxylate] | 138
Nc1ncnn2c(-c3ccnc(F)c3)cc(N3CCC[C@@H](NC(=O)c4csc(Cl)c4)C3)c12 [Example 161, (R)-N-(1-(4-amino-7-(2-fluoropyridin-4-yl)pyrrolo[2,1-f][1,2,4]triazin-5-yl)piperidin-3-yl)-5-chlorothiophone-3-carboxamide] | 2
CC(=O)N1CC=C(c2cc(N3CCC[C@@H](NC(=O)c4cccc(N5CCN(CC(F)F)CC5)n4)C3)c3c(N)ncnn23)C1 [Example 750, (R)-N-(1-(7-(1-acetyl-2,5-dihydro-1H-pyrrol-3-yl)-4-aminopyrrolo[2,1-f][1,2,4]triazin-5-yl)piperidin-3-yl)-6-(4-(2,2-difluoroethyl)piperazin-1-yl)picolinamide] | 41
COCCOc1cc(Cl)sc1C(=O)N[C@@H]1CCCN(c2cc(-c3ccc(C(N)=O)c(F)c3)n3ncnc(N)c23)C1 [Example 162, (R)-N-(1-(4-amino-7-(4-carbamoyl-3-fluorophenyl)pyrrolo [2,1-f][1,2,4]triazin-5-yl)piperidin-3-yl)-5-chloro-3-(2-methoxyethoxy) thiophene-2-carboxamide] | 5
COC(=O)N1CC=C(c2cc(N3CCC[C@@H](NC(=O)c4sc(C(F)F)cc4N4CCOCC4)C3)c3c(N)ncnn23)C1 [Example 321, Methyl (R)-3-(4-amino-5-(3-(5-(difluoromethyl)-3-morpholinothiophene-2-carboxamido)piperidin-1-yl)pyrrolo[2,1-f][1,2,4]triazin-7-yl)-2,5-dihydro-1H-pyrrole-1-carboxylate] | 13
(R)-N-(1-(4-amino-7-12-(2-hydroxypropan-2-yl)pyrimidin-5-yl)pyrrolo[2,1-f][1,2,4]triazin-5-yl)piperidin-3-yl)-5-(difluoromethyl)thiophene-2-carboxamide [Example 519] | 1050
COC(=O)N1CC=C(c2cc(N3CCC[C@@H](NC(=O)c4sc(Cl)cc4OC4CNC4)C3)c3c(N)ncnn23)C1 [Example 568, Methyl (R)-3-(4-amino-5-(3-(3-(azetidin-3-yloxy)-5-chlorothiophene-2-carboxamido)piperidin-1-yl)pyrrolo[2,1-f][1,2,4]triazin-7-yl)-2,5-dihydro-1H-pyrrole-1-carboxylate] | 5
COC(=O)N1CC=C(c2cc(N3CCC[C@@H](NC(=O)c4sc(Cl)cc4OC4CCNC(C)(C)C4)C3)c3c(N)ncnn23)C1 (mixture of isomers) [Example 628, methyl 3-(4-amino-5-((3R)-3-(5-chloro-3-((2,2-dimethylpiperidin-4-yl)oxy)thiophene-2-carboxamido)piperidin-1-yl)pyrrolo[2,1-f][1,2,4]triazin-7-y1)-2,5-dihydro-1H-pyrrole-1-carboxylate] | 1
COc1cccc(C(=O)N[C@@H]2CCCN(c3cc(C4=CCN(C(C)=O)C4)n4ncnc(N)c34)C2)n1 [Example 715, (R)-N-(1-(7-(1-acetyl-2,5-dihydro-1H-pyrrol-3-yl)-4-aminopyrrolo[2,1-f][1,2,4]triazin-5-yl)piperidin-3-yl)-6-methoxypicolinamide] | 22

Further molecules by falling IC50, results first:

IC50 [nM] | Molecule
65 | CC(=O)N1CC=C(c2cc(N3CCC[C@@H](NC(=O)c4cccc(-n5cnnc5)c4)C3)c3c(N)ncnn23)C1 [Example 257, (R)—N-(1-(7-(1-acetyl-2,5-dihydro-1H-pyrrol-3-yl)-4-aminopyrrolo[2,1-f][1,2,4]triazin-5-yl)piperidin-3-yl)-3-(4H-1,2,4-triazol-4-yl)benzamide, TFA]
47 | CS(=O)(=O)c1ccc(-c2cc(N3CCC[C@@H](NC(=O)c4ccccc4F)C3)c3c(N)ncnn23)cc1 [Example 20, (R)-N-(1-(4-amino-7-(4-(methylsulfonyl)phenyl)pyrrolo[2,1-f][1,2,4]triazin-5-yl)piperidin-3-yl)-2-fluorobenzamide]
26 | Nc1ncnn2c(-c3cncnc3)cc(N3CCC[C@@H](NC(=O)c4sc(Cl)cc4OC4CCN(C5COC5)CC4)C3)c12 [Example 584]
12 | N#Cc1ccc(-c2cc(N3CCC[C@@H](NC(=O)c4sc(Cl)cc4OC4CCNC4)C3)c3c(N)ncnn23)cn1 (stereo partly drawn) [Example 637, N-((R)-1-(4-amino-7-(6-cyanopyridin-3-yl)pyrrolo[2,1-f][1,2,4]triazin-5-yl)piperidin-3-y1)-5-chloro-3-(pyrrolidin-3-yloxy)thiophene-2-carboxamide]
10 | Nc1ncnn2c(C3=CCN(C(=O)[C@@H]4CCNC4)C3)cc(N3CCC[C@@H](NC(=O)c4ccc(Cl)s4)C3)c12 [Example 896, N-((R)-1-(4-amino-7-(1-((R)-pyrrolidine-3-carbonyl)-2,5-dihydro-1H-pyrrol-3-yl)pyrrolo[2,1-f][1,2,4]triazin-5-yl)piperidin-3-y1)-5-chlorothiophene-2-carboxamide, TFA]
4 | Cc1cc(-c2cc(N3CCC[C@@H](NC(=O)c4ccc(C)s4)C3)c3c(N)ncnn23)ccn1 [Example 133, N-[(3R)-1-[4-amino-7-(2-methylpyridin-4-yl)pyrrolo[2,1-f][1,2,4]triazin-5-yl]piperidin-3-yl]-5-methylthiophene-2-carboxamide]
4 | COC(=O)N1CC=C(c2cc(N3CCC[C@@H](NC(=O)c4sc(Cl)cc4OC4COC4)C3)c3c(N)ncnn23)C1 [Example 567, Methyl (R)-3-(4-amino-5-(3-(5-chloro-3-(oxetan-3-yloxy)thiophene-2-carboxamido)piperidin-1-yl)pyrrolo[2,1-f][1,2,4]triazin-7-yl)-2,5-dihydro-1H-pyrrole-1-carboxylate]
3 | CC(=O)N1CC=C(c2cc(N3CCC[C@@H](NC(=O)c4sc(C5CC5)cc4OC4CCNCC4)C3)c3c(N)ncnn23)C1 [Example 376E, (R)—N-(1-(7-(1-acetyl-2,5-dihydro-1H-pyrrol-3-yl)-4-aminopyrrolo[2,1-f][1,2,4]triazin-5-yl)piperidin-3-yl)-5-cyclopropyl-3-(piperidin-4-yloxy)thiophene-2-carboxamide]
2 | Cc1cc(-c2cc(N3CCC[C@@H](NC(=O)c4sc(C(F)F)cc4OC4CCN(C)CC4)C3)c3c(N)ncnn23)cnc1C#N [Example 439, (R)-N-(1-(4-amino-7-(6-cyano-5-methylpyridin-3-yl)pyrrolo[2,1-f][1,2,4]triazin-5-yl)piperidin-3-yl)-5-(difluoromethyl)-3-((1-methylpiperidin-4-yl)oxy)thiophene-2-carboxamide]
0.9 | N#Cc1ccc(-c2cc(N3CCC[C@@H](NC(=O)c4sc(Cl)cc4OCC4CCNCC4)C3)c3c(N)ncnn23)cn1 [Example 641, (R)-N-(1-(4-amino-7-(6~cyanopyridin-3-y1)pyrrolo[2,1-f][1,2,4]triazin-5-y1)piperidin-3-yl)-5-chloro-3-(piperidin-4-ylmethoxy)thiophene-2-carboxamide]
